{"source": "patent US7718815B2", "about": "“Alpha-aminoamide derivatives useful in the treatment of lower urinary tract disorders” (Newron Pharmaceuticals S.p.A., priority 2004, dated 2010)", "key": {"[1]": {"test_system": "acetic acid (AA) irritated bladders of rats", "assay": "Acute bladder irritation by acetic acid in rats (continuous infusion cystometrogram)", "assay_type": "in vivo, rat (female Sprague Dawley)", "settings": "anesthetized rats; 3, 10 and 30 mg/kg, intravenous cumulative doses; intravesical infusion of 0.15% acetic acid; FIG. 1", "procedure": "(§1) The effect of a representative compound of formula I, (S)-(+)-2-[4-(2-fluorobenzyloxy)-benzylamino]-propanamide (NW-1029), on voiding function was tested in the following rat models of “Acute bladder irritation by acetic acid” and “Intermediate bladder irritation by cyclophosphamide (CYP)”.\n(§2) Continuous infusion cystometrograms (0.04 ml/min) were used to measure intercontraction intervals (ICIs) which provide an estimate of bladder capacity. Cumulative dose response curves were obtained in each animal by administering intravenously increasing doses of the drug.\nExperiments were performed using adult anesthetized female Sprague Dawley rats (170-200 g).\nA catheter (PE-50) was inserted via a midline abdominal incision into the bladder through the bladder dome, and then intravesical pressure was measured to monitor bladder activity during continuous infusion of 0.15% of acetic acid. Intercontraction intervals (ICIs), maximal contraction pressure, and pressure thresholds inducing reflex bladder contraction were measured before and after intravesical infusion of acetic acid in NW-1029 treated rats."}, "[2]": {"test_system": "cyclophosphamide (CYP) irritated bladders of rats", "assay": "Intermediate bladder irritation by cyclophosphamide (CYP) in rats (continuous infusion cystometrogram)", "assay_type": "in vivo, rat (female Sprague Dawley)", "settings": "0.1 to 10 mg/kg/iv, CYP 150 mg/kg/ip one day before", "procedure": "as §1, §2\nExperiments were performed using both adult awake and anesthetized female Sprague Dawley rats (170-200 g).\nChemical cystitis was induced by CYP, which is metabolized to acrolein, an irritant eliminated in the urine. CYP (150 mg/kg/ip) was administered one day before the experiment.\nNW-1029 was administered in a dose range from 0.1 to 10 mg/kg/iv."}}}
{"smiles": "C[C@H](NCc1ccc(OCc2ccccc2F)cc1)C(N)=O", "note": "[NW-1029, (S)-(+)-2-[4-(2-fluorobenzyloxy)-benzylamino]-propanamide]", "values": [{"measurement": "intercontraction interval (ICI), reversal of AA-induced reduction", "setting": "[1]", "value": "significant reversal of the AA-induced reduction in the ICI"}, {"measurement": "intercontraction interval (ICI)", "setting": "[2]; anesthetized rats, FIG. 3", "value": "significantly increases the ICI"}, {"measurement": "intercontraction interval (ICI)", "setting": "[2]; awake rats, FIG. 2", "value": "significantly increases the ICI"}]}
